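Compound exposure: 48 hours, 5 concentrations, 96-well plates. GI50 marks 50% less growth. TGI is the concentration that stops growth completely.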
Tests used:
Assay in all cases: NCI tumour cell line growth inhibition, 48 h
[1] = tested on: 786-0 renal
[2] = tested on: A549 NSCLC
[3] = tested on: ACHN renal
[4] = tested on: BT-549 breast
[5] = tested on: CAKI-1 renal
[6] = tested on: CCRF-CEM leukemia
[7] = tested on: COLO 205 colon
[8] = tested on: DU-145 prostate
[9] = tested on: EKVX NSCLC
[10] = tested on: HCC-2998 colon
[11] = tested on: HCT-116 colon
[12] = tested on: HCT-15 colon
[13] = tested on: HL-60(TB) leukemia
[14] = tested on: HOP-62 NSCLC
[15] = tested on: HOP-92 NSCLC
[16] = tested on: HS 578T breast
[17] = tested on: HT29 colon
[18] = tested on: IGROV1 ovarian
[19] = tested on: K-562 leukemia
[20] = tested on: KM12 colon
[21] = tested on: LOX IMVI melanoma
[22] = tested on: M14 melanoma
[23] = tested on: MALME-3M melanoma
[24] = tested on: MCF7 breast
[25] = tested on: MDA-MB-231 breast
[26] = tested on: MDA-MB-435
[27] = tested on: MDA-N
[28] = tested on: MOLT-4 leukemia
[29] = tested on: NCI-H226 lung
[30] = tested on: NCI-H23 lung
[31] = tested on: NCI-H522 lung
[32] = tested on: NCI/ADR-RES ovarian
[33] = tested on: OVCAR-3 ovarian
[34] = tested on: OVCAR-4 ovarian
[35] = tested on: OVCAR-5 ovarian
[36] = tested on: OVCAR-8 ovarian
[37] = tested on: PC-3 prostate
[38] = tested on: RPMI-8226 leukemia
[39] = tested on: SF-268 CNS
[40] = tested on: SF-295 CNS
[41] = tested on: SF-539 CNS
[42] = tested on: SK-MEL-2 melanoma
[43] = tested on: SK-MEL-28 melanoma
[44] = tested on: SK-MEL-5 melanoma
[45] = tested on: SK-OV-3 ovarian
[46] = tested on: SN12C renal
[47] = tested on: SNB-19 CNS
[48] = tested on: SNB-75 CNS
[49] = tested on: SR leukemia
[50] = tested on: SW-620 colon
[51] = tested on: T-47D breast
[52] = tested on: TK-10 renal
[53] = tested on: U251 CNS
[54] = tested on: UACC-257 melanoma
[55] = tested on: UACC-62 melanoma
[56] = tested on: UO-31 renal
[57] = tested on: NCI-H460 lung
[58] = tested on: RXF 393 renal

SMILES: COC1CC(OC2C(C)OC(OC3C(C)OC(OC4C(C)OC(O[C@H]5CC[C@@]6(C)C(=CC[C@]7(O)[C@@H]6C[C@@H](OC(=O)/C=C/c6ccccc6)[C@@]6(C)[C@]7(O)CC[C@@]6(O)C(C)=O)C5)CC4OC)CC3OC)CC2OC)OC(C)C1O (stereo not given in full)
- TGI [1]: > 12.5 µM
- TGI [2]: > 12.5 µM
- TGI [3]: > 12.5 µM
- TGI [4]: > 12.5 µM
- TGI [5]: > 12.5 µM
- TGI [6]: > 12.5 µM
- TGI [7]: > 12.5 µM
- TGI [8]: > 12.5 µM
- TGI [9]: > 12.5 µM
- TGI [10]: > 12.5 µM
- TGI [11]: > 12.5 µM
- TGI [12]: > 12.5 µM
- TGI [13]: > 12.5 µM
- TGI [14]: > 12.5 µM
- TGI [15]: > 12.5 µM
- TGI [16]: > 12.5 µM
- TGI [17]: > 12.5 µM
- TGI [18]: > 12.5 µM
- TGI [19]: > 12.5 µM
- TGI [20]: > 12.5 µM
- TGI [21]: > 12.5 µM
- TGI [22]: > 12.5 µM
- TGI [23]: > 12.5 µM
- TGI [24]: > 12.5 µM
- TGI [25]: > 12.5 µM
- TGI [26]: > 12.5 µM
- TGI [27]: > 12.5 µM
- TGI [28]: > 12.5 µM
- TGI [29]: > 12.5 µM
- TGI [30]: > 12.5 µM
- TGI [31]: > 12.5 µM
- TGI [32]: > 12.5 µM
- TGI [33]: > 12.5 µM
- TGI [34]: > 12.5 µM
- TGI [35]: > 12.5 µM
- TGI [36]: > 12.5 µM
- TGI [37]: > 12.5 µM
- TGI [38]: > 12.5 µM
- TGI [39]: > 12.5 µM
- TGI [40]: > 12.5 µM
- TGI [41]: > 12.5 µM
- TGI [42]: > 12.5 µM
- TGI [43]: > 12.5 µM
- TGI [44]: > 12.5 µM
- TGI [45]: > 12.5 µM
- TGI [46]: > 12.5 µM
- TGI [47]: > 12.5 µM
- TGI [48]: > 12.5 µM
- TGI [49]: > 12.5 µM
- TGI [50]: > 12.5 µM
- TGI [51]: > 12.5 µM
- TGI [52]: > 12.5 µM
- TGI [53]: > 12.5 µM
- TGI [54]: > 12.5 µM
- TGI [55]: > 12.5 µM
- TGI [56]: > 12.5 µM

SMILES: O=C(OCCN=C1c2ccccc2CCc2ccccc21)c1ccccc1
- TGI [1]: > 100 µM
- TGI [2]: > 100 µM
- TGI [3]: > 100 µM
- TGI [4]: > 100 µM
- TGI [5]: > 100 µM
- TGI [6]: > 100 µM
- TGI [7]: > 100 µM
- TGI [8]: > 100 µM
- TGI [9]: > 100 µM
- TGI [10]: > 100 µM
- TGI [11]: > 100 µM
- TGI [12]: > 100 µM
- TGI [13]: > 100 µM
- TGI [14]: > 100 µM
- TGI [15]: > 100 µM
- TGI [16]: > 100 µM
- TGI [17]: > 100 µM
- TGI [18]: > 100 µM
- TGI [19]: > 100 µM
- TGI [20]: > 100 µM
- TGI [21]: > 100 µM
- TGI [22]: > 100 µM
- TGI [23]: > 100 µM
- TGI [24]: > 100 µM
- TGI [25]: > 100 µM
- TGI [26]: > 100 µM
- TGI [27]: > 100 µM
- TGI [28]: 39 µM
- TGI [29]: > 100 µM
- TGI [30]: > 100 µM
- TGI [57]: > 100 µM
- TGI [32]: > 100 µM
- TGI [33]: > 100 µM
- TGI [34]: > 100 µM
- TGI [35]: > 100 µM
- TGI [36]: > 100 µM
- TGI [37]: > 100 µM
- TGI [38]: 34.2 µM
- TGI [58]: > 100 µM
- TGI [39]: > 100 µM
- TGI [40]: > 100 µM
- TGI [41]: > 100 µM
- TGI [42]: > 100 µM
- TGI [43]: > 100 µM
- TGI [44]: > 100 µM
- TGI [45]: > 100 µM
- TGI [46]: > 100 µM
- TGI [47]: > 100 µM
- TGI [48]: > 100 µM
- TGI [49]: 50.2 µM
- TGI [50]: > 100 µM
- TGI [51]: > 100 µM
- TGI [52]: > 100 µM
- TGI [53]: > 100 µM
- TGI [54]: > 100 µM
- TGI [55]: > 100 µM
- TGI [56]: > 100 µM

SMILES: CN=C(NN)NS(=O)(=O)c1cc(C)c(Cl)cc1S
- TGI [1]: > 100 µM
- TGI [2]: > 100 µM
- TGI [4]: > 100 µM
- TGI [5]: > 100 µM
- TGI [6]: > 100 µM
- TGI [7]: > 100 µM
- TGI [8]: > 100 µM
- TGI [9]: > 100 µM
- TGI [10]: > 100 µM
- TGI [11]: > 100 µM
- TGI [12]: > 100 µM
- TGI [13]: > 100 µM
- TGI [14]: > 100 µM
- TGI [15]: > 100 µM
- TGI [16]: 75.3 µM
- TGI [17]: > 100 µM
- TGI [18]: > 100 µM
- TGI [19]: > 100 µM
- TGI [20]: > 100 µM
- TGI [21]: > 100 µM
- TGI [22]: > 100 µM
- TGI [23]: > 100 µM
- TGI [24]: > 100 µM
- TGI [25]: > 100 µM
- TGI [26]: > 100 µM
- TGI [27]: > 100 µM
- TGI [29]: > 100 µM
- TGI [31]: 97.7 µM
- TGI [32]: > 100 µM
- TGI [33]: > 100 µM
- TGI [34]: > 100 µM
- TGI [35]: > 100 µM
- TGI [36]: > 100 µM
- TGI [37]: > 100 µM
- TGI [38]: > 100 µM
- TGI [58]: > 100 µM
- TGI [39]: > 100 µM
- TGI [41]: > 100 µM
- TGI [42]: > 100 µM
- TGI [43]: > 100 µM
- TGI [44]: > 100 µM
- TGI [45]: > 100 µM
- TGI [46]: > 100 µM
- TGI [47]: > 100 µM
- TGI [48]: > 100 µM
- TGI [49]: > 100 µM
- TGI [50]: > 100 µM
- TGI [51]: > 100 µM
- TGI [52]: > 100 µM
- TGI [53]: > 100 µM
- TGI [54]: > 100 µM
- TGI [55]: > 100 µM
- TGI [56]: 74.7 µM

SMILES: COc1cc(O)c2c(=O)c(OC)c(-c3ccc(OC)c(OC)c3)oc2c1.[Co]
- TGI [1]: > 100 µM
- TGI [2]: > 100 µM
- GI50 [3]: 56.9 µM
- TGI [3]: > 100 µM
- TGI [4]: > 100 µM
- TGI [5]: > 100 µM
- TGI [7]: > 100 µM
- GI50 [8]: > 100 µM
- TGI [8]: > 100 µM
- GI50 [9]: > 100 µM
- TGI [9]: > 100 µM
- GI50 [10]: > 100 µM
- TGI [10]: > 100 µM
- GI50 [11]: 61.6 µM
- TGI [11]: > 100 µM
- TGI [13]: > 100 µM
- GI50 [14]: 34.5 µM
- TGI [14]: > 100 µM
- GI50 [15]: 31.8 µM
- TGI [15]: > 100 µM
- TGI [16]: > 100 µM
- GI50 [17]: > 100 µM
- TGI [17]: > 100 µM
- GI50 [18]: > 100 µM
- TGI [18]: > 100 µM
- GI50 [19]: 75.5 µM
- TGI [19]: > 100 µM
- GI50 [20]: > 100 µM
- TGI [20]: > 100 µM
- GI50 [21]: > 100 µM
- TGI [21]: > 100 µM
- GI50 [22]: > 100 µM
- TGI [22]: > 100 µM
- GI50 [23]: 51.4 µM
- TGI [23]: > 100 µM
- GI50 [24]: > 100 µM
- TGI [24]: > 100 µM
- GI50 [25]: 18.1 µM
- TGI [25]: > 100 µM
- TGI [26]: > 100 µM
- TGI [27]: > 100 µM
- GI50 [28]: 9.92 µM
- TGI [28]: > 100 µM
- TGI [29]: > 100 µM
- GI50 [30]: > 100 µM
- TGI [30]: > 100 µM
- TGI [57]: > 100 µM
- TGI [31]: 35.1 µM
- GI50 [32]: > 100 µM
- TGI [32]: > 100 µM
- GI50 [33]: > 100 µM
- TGI [33]: > 100 µM
- GI50 [34]: 13.1 µM
- TGI [34]: > 100 µM
- GI50 [35]: > 100 µM
- TGI [35]: > 100 µM
- GI50 [36]: > 100 µM
- TGI [36]: > 100 µM
- GI50 [37]: 66.7 µM
- TGI [37]: > 100 µM
- TGI [38]: > 100 µM
- TGI [58]: > 100 µM
- GI50 [39]: 38.4 µM
- TGI [39]: > 100 µM
- GI50 [40]: 16.2 µM
- TGI [40]: > 100 µM
- TGI [41]: > 100 µM
- GI50 [43]: > 100 µM
- TGI [43]: > 100 µM
- GI50 [44]: 70.3 µM
- TGI [44]: > 100 µM
- TGI [45]: > 100 µM
- TGI [46]: > 100 µM
- TGI [48]: > 100 µM
- GI50 [49]: 5.29 µM
- TGI [49]: > 100 µM
- TGI [50]: > 100 µM
- GI50 [51]: 10.7 µM
- TGI [51]: > 100 µM
- TGI [52]: > 100 µM
- TGI [53]: > 100 µM
- GI50 [55]: 32.3 µM
- TGI [55]: > 100 µM
- TGI [56]: > 100 µM

Reference: PubChem BioAssay (NCI)
